Measurements published in patent publication US12569686B2, “Chronically implantable systems and methods for affecting cardiac contractility and/or relaxation” (Cardionomix, Inc., priority 2020, dated 2026).

Test system: normal, non-HF ovine model
Experiment: Change in ventricle contractility (max dP/dt as surrogate) and beat-by-beat correlation of right and left ventricle contractility after an injection
Format: in vivo
Conditions: pressure max (dP/dt) used as surrogate for contractility, calcium at 5 mL
Excerpt: The correlation was a heartbeat-by-heartbeat analysis. Pressure measurements, taken by a Millar catheter comprising a MEMS pressure sensor, in units of max (dP/dt) was used as a surrogate for contractility. The first change, a dobutamine injection, provided a very high contractility increase greater than 500%. The average correlation between right ventricle contractility and left ventricle contractility was very good at 0.91, where 1.00 is a perfect correlation. Accordingly, if a subject is given a dobutamine injection, measuring changes to right ventricle contractility can provide accurate information about changes to left ventricle contractility. The first change was repeated three times. The second change, calcium injection at 5 mL, provided a contractility increase of about 20%. […] The average correlation between right ventricle contractility and left ventricle contractility using a Millar (MEMS) sensor on a catheter was very good at 0.91. The average correlation between right ventricle contractility and left ventricle contractility using a fluid-filled lumen of a Swan-Ganz catheter in communication with an external pressure sensor was also very good at 0.87. […]

Question: calcium [Calcium Injection] was tested. Which “Contractility % Increase” value did it give?
Answer: Its value is about 20%.

Question: And the “Contractility % Increase” value (listed as calcium injection)?
Answer: Its value is “about 20%”.
